# Measurements: US11629154B2, “Tetrahydropyranooxazine derivatives having selective BACE1 inhibitory activity” (SHIONOGI & CO., LTD., priority 2018, dated 2023)
# Key:
# [1] = biological target: P-gp (MDR1 expressing LLC-PK1 cells) (Homo sapiens (Human), UniProt P08183); experiment: P-gp substrate test; assay type: in vitro ADME; details: MDR1/LLC-PK1 versus LLC-PK1
# Procedure: 1. MDR1 expressing LLC-PK1 cells and its parent cells were routinely cultured in Medium A (Medium 199 (Invitrogen) supplemented with 10% FBS (Invitrogen), gentamycin (0.05 mg/mL, Invitrogen) and hygromycin B (100 μg/mL, Invitrogen)) at 37° C. under 5% CO2/[…] gasses. For the transport experiments, these cells were seeded on Transwell (Registered trademark) insert (96-well, pore size: 0.4 μm, Coaster) at a density of 1.4×10^4 cells/insert and added Medium B (Medium 199 supplemented with 10% FBS and gentamycin at 0.05 mg/mL) to the feeder tray. These cells were incubated in a CO2 incubator (5% CO2/[…] gasses, 37° C.) and replace apical and basolateral culture medium every 48-72 hr after seeding. These cells were used between 4 and 6 days after seeding. 2. The medium in the culture insert seeded with MDR1 expressing cells or parent cells were removed by aspiration and rinsed by HBSS. The apical side (140 μL) or basolateral side (175 μL) was replaced with transport buffer containing reference substrates and the present invention and then an aliquot (50 μL) of transport buffer in the donor side was collected to estimate initial concentration of reference substrate and the present invention. After incubation for designed time at 37° C., an aliquot (50 μL) of transport buffer in the donor and receiver side were collected. Assay was performed by duplicate or triplicate. 3. Reference substrate and the present invention in the aliquot was quantified by LC/MS/MS.
# Permeated amounts across monolayers of MDR1 expressing and parent cells were determined, and permeation coefficients (Pe) were calculated using Excel 2003 from the following equitation: Pe (cm/sec)=Permeated amount (pmol)/area of cell membrane (cm^2)/initial concentration (nM)/incubation time (sec) Where, permeated amount was calculated from permeation concentration (nM, concentration of the receiver side) of the substance after incubation for the defined time (sec) multiplied by volume (mL) and area of cell membrane was used 0.1433 (cm2).
# The efflux ratio was calculated using the following equation: Efflux Ratio=Basolateral-to-Apical Pe/Apical-to-Basolateral Pe The net flux was calculated using the following equation: Net flux=Efflux Ratio in MDR1 expressing cells/Efflux Ratio in parent cells
# [2] = biological target: human ether-a-go-go related gene (hERG) channel (Homo sapiens (Human), UniProt Q12809); experiment: hERG test; assay type: cell-based; details: CHO cells expressing hERG
# human ether-a-go-go related gene (hERG) channel, sequence (Q12809 whole entry): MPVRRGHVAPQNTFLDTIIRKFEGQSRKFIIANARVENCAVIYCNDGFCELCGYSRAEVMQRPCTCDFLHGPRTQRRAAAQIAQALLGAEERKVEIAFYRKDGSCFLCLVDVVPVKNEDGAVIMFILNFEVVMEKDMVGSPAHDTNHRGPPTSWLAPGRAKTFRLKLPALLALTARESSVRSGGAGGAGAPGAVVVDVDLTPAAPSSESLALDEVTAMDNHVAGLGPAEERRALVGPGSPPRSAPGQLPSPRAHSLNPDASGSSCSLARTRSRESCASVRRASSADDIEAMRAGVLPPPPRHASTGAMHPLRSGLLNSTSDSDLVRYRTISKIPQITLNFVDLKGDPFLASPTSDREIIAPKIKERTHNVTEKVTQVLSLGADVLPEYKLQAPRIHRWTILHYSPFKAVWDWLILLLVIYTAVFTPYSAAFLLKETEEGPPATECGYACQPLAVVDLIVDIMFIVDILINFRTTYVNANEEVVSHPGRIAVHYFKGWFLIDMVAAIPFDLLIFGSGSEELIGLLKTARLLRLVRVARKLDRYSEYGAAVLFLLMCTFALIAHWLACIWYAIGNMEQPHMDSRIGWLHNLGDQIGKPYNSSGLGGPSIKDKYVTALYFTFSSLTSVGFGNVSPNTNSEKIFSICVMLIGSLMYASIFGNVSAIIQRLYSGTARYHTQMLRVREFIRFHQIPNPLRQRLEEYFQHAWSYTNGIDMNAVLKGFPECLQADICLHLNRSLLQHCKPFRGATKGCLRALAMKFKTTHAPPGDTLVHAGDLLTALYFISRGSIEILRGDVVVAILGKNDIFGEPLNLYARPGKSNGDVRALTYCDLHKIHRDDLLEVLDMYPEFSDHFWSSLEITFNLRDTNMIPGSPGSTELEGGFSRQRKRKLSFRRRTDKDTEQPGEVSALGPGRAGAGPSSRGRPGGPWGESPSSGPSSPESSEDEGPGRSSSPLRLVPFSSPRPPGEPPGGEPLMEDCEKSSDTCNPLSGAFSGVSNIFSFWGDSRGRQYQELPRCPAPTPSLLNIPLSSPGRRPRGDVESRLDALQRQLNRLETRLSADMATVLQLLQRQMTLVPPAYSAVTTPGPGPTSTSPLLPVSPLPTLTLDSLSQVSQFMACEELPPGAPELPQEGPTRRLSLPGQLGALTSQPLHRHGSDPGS
# Text: For the purpose of assessing risk of an electrocardiogram QT interval prolongation, effects on delayed rectifier K+ current (IKr), which plays an important role in the ventricular repolarization process of the compound of the present invention, was studied using CHO cells expressing human ether-a-go-go related gene (hERG) channel.
# A cell was retained at a membrane potential of −80 mV by whole cell patch clamp method using an automated patch clamp system (QPatch; Sophion Bioscience A/S). After application of leak potential at −50 mV, IKr induced by depolarization pulse stimulation at +20 mV for 2 seconds and, further, repolarization pulse stimulation at −50 mV for 2 seconds was recorded.
# Further, the % inhibition relative to the tail peak current before application of the compound of the present invention was calculated, and compared with the vehicle-applied group (0.1% dimethyl sulfoxide solution) to assess influence of the compound of the present invention on IKr.
# CYP3A4 = CYP3A4 (Homo sapiens (Human), UniProt P08684); experiment: CYP3A4(MDZ) MBI test; assay type: in vitro ADME; details: pooled human liver microsomes, midazolam 1-hydroxylation, preincubation 0 or 30 minutes
# CYP3A4, sequence (P08684 whole entry): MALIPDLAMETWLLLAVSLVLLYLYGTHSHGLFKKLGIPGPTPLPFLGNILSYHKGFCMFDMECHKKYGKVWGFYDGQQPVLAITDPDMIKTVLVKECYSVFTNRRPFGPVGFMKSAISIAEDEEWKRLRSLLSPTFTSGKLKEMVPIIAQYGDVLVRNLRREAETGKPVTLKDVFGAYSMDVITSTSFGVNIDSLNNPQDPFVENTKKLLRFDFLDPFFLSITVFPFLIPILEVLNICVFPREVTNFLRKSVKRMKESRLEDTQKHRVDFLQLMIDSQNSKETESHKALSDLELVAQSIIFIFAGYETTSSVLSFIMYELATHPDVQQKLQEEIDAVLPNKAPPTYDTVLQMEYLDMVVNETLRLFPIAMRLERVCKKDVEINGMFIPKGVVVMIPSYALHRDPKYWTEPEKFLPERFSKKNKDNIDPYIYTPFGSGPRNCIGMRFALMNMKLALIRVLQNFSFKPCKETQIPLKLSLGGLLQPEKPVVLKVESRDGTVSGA
# Procedure: CYP3A4(MDZ) MBI test is a test of investigating mechanism based inhibition (MBI) potential on CYP3A4 inhibition of a compound. CYP3A4 inhibition is evaluated using 1-hydroxylation reaction of midazolam (MDZ) by pooled human liver microsomes as a marker reaction.
# The reaction conditions were as follows: substrate, 10 μmol/L MDZ; pre-reaction time, 0 or 30 minutes; substrate reaction time, 2 minutes; reaction temperature, 37° C.; protein content of pooled human liver microsomes, 0.5 mg/mL at pre-reaction time, […] (at 10-fold dilution) at reaction time; concentrations of the compound of the present invention, 1, 5, 10, 20 μmol/L (4 points).
# Pooled human liver microsomes in a K-Pi buffer (pH 7.4) and a compound of the present invention solution as a pre-reaction solution were added to a 96-well plate at the composition of the pre-reaction. A part of pre-reaction solution was transferred to another 96-well plate, and diluted 10-fold by a substrate in a K-Pi buffer. NADPH as a co-factor was added to initiate the marker reaction (without preincubation). After a predetermined time of the marker reaction, methanol/acetonitrile=1/1 (v/v) solution was added in order to terminate the marker reaction. On the other hand, NADPH was also added to a remaining pre-reaction solution in order to initiate a pre-reaction (with preincubation). After a predetermined time of a pre-reaction, a part was transferred to another 96-well plate, and diluted 10-fold by a substrate in a K-Pi buffer in order to initiate the marker reaction. After a predetermined time of the marker reaction, methanol/acetonitrile=1/1 (v/v) solution is added in order to terminate the marker reaction. After centrifuged at 3000 rpm for 15 minutes, 1-hydroxymidazolam in the supernatant is quantified by LC/MS/MS.
# The sample adding DMSO to a reaction system instead of compound of the present invention solution was adopted as a control (100%) because DMSO is used as a solvent to dissolve a compound of the present invention. Remaining activity (%) was calculated at each concentration of the compound of the present invention added as the solution, and IC50 value was calculated by reverse-presumption using a logistic model with a concentration and an inhibition rate. Shifted IC value was calculated as “IC value without preincubation (0 minutes)/IC value with preincubation (30 minutes)″. When a shifted IC value was 1.5 or more, this was defined as positive. When a shifted IC value was less than 1.1, this was defined as negative.
# Metabolic stability test = assay type: in vitro ADME; details: human liver microsomes, 37° C., NADPH
# Procedure: Using a commercially available pooled human liver microsomes, a compound of the present invention was reacted for a constant time, a remaining rate was calculated by comparing a reacted sample and an unreacted sample, thereby, a degree of metabolism in liver was assessed.
# A reaction was performed (oxidative reaction) at 37° C. for 0 minute or 30 minutes in the presence of 1 mmol/L NADPH in 0.2 mL of a buffer (50 mmol/L Tris-HCl pH 7.4, 150 mmol/L potassium chloride, 10 mmol/L magnesium chloride) containing 0.5 mg protein/mL of human liver microsomes. After the reaction, 50 μL of the reaction solution was added to 100 μL of a methanol/acetonitrile=1/1 (v/v), mixed and centrifuged at 3000 rpm for 15 minutes. The compound of the present invention in the supernatant was quantified by LC/MS/MS or solid phase extraction (SPE)MS, and a remaining amount of the compound of the present invention after the reaction was calculated, letting a compound amount at 0 minute reaction time to be 100%.
# P-gp (MDR1 expressing LLC-PK1 cells), sequence (P08183 whole entry): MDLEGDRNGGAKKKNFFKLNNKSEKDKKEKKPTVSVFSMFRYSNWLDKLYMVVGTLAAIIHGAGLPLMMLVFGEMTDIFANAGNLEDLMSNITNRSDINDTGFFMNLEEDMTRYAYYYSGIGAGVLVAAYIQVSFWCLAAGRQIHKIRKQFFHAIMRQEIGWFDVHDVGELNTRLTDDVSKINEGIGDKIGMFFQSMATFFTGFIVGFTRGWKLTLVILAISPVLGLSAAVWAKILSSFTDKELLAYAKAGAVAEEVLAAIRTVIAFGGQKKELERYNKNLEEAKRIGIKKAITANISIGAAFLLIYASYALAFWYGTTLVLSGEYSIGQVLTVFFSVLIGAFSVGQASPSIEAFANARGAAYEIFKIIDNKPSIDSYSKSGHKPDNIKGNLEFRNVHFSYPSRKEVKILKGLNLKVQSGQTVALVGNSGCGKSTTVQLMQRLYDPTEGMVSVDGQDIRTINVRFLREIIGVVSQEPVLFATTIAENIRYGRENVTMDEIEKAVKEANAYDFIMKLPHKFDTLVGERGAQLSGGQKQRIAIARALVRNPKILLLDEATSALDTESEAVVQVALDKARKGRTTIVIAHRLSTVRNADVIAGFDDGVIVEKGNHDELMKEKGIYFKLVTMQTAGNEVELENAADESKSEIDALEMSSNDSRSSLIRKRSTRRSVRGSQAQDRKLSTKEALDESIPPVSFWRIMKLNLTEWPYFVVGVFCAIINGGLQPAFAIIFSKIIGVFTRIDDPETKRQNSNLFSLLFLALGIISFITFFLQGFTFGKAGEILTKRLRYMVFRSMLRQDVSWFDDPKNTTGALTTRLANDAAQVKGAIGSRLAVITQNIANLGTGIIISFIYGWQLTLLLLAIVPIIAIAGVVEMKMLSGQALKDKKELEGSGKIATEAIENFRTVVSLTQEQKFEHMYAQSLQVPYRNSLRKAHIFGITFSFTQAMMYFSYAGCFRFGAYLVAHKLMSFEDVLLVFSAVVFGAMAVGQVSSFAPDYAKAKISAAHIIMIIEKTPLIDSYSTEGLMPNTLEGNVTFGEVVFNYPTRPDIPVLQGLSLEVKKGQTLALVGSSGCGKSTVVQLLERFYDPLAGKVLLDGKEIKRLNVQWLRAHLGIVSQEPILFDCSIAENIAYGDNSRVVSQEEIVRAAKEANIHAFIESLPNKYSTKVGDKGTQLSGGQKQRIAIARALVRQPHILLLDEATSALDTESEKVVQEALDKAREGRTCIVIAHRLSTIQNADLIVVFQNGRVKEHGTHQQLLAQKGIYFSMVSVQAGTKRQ
SMILES,P-gp ER ratio [1],hERG inhibition (%) at 3 μM [2] [%],MBI MDZ (CYP3A4),Remaining rate(%) at 30 min (Metabolic stability test) [%]
NC1=N[C@](CF)(c2cc(NC(=O)c3cnc(-n4cncn4)cn3)ccc2F)[C@H]2COCC[C@H]2O1 [Compound I-047],4.7,11.6,"Negative (When a shifted IC value was less than 1.1, this was defined as negative)",61.6
NC1=N[C@](CF)(c2cc(NC(=O)c3cnc(OC(F)F)cn3)ccc2F)[C@H]2COCC[C@H]2O1 [Compound I-076],6.2,18.5,"Negative (When a shifted IC value was less than 1.1, this was defined as negative)",91.7
COc1cnc(C(=O)Nc2ccc(F)c([C@@]3(CF)N=C(N)O[C@@H]4CCOC[C@@H]43)c2)cn1 [Compound I-067],6.1,5.39,"Negative (When a shifted IC value was less than 1.1, this was defined as negative)",91.4
C[C@@H]1C[C@H]2OC(N)=N[C@](CF)(c3cc(NC(=O)c4cnc(OCF)cn4)ccc3F)[C@H]2CO1 [Compound I-008],6.2,18.5,"Negative (When a shifted IC value was less than 1.1, this was defined as negative)",94.4
NC1=N[C@](CF)(c2cc(NC(=O)c3ccc(C(F)(F)F)cn3)ccc2F)[C@H]2COCC[C@H]2O1 [Compound I-105],7.1,40.8,"Negative (When a shifted IC value was less than 1.1, this was defined as negative)",87.9
C[C@@H]1C[C@H]2OC(N)=N[C@](CF)(c3cc(NC(=O)c4cnc(OCF)cn4)ccc3Cl)[C@H]2CO1 [Compound I-065],5.7,37.8,"Negative (When a shifted IC value was less than 1.1, this was defined as negative)",79.6
NC1=N[C@](CF)(c2cc(NC(=O)c3cnc(OCF)cn3)ccc2F)[C@H]2COCC[C@H]2O1 [Compound I-007],5.5,6.83,"Negative (When a shifted IC value was less than 1.1, this was defined as negative)",107
